This experiment has as its target T1, HGFR (Homo sapiens, UniProt P08581).
T1 construct: purchased Upstate 14-526
Briefly: HGFR continuous-coupled spectrophotometric assay. It counts as biochemical. As to conditions: for inhibition at 1 pM / inhibition at 1 µM: read-out: % Inhibition (percent c-MET inhibition); for inhibition at 0.05 µM: at 50 nM, Table 5, library procedure 40, read-out: % inhibition (percent c-MET inhibition); for inhibition at 1 µM: Table 8, library procedure 43.

Setting [1] is: Table 3, column 'Ki (μM) or I (%)': cells without % sign, read-out: Ki.
Where [2] appears, read: at 1 pM, Table 6, library procedure 41.
Setting [3] is: at 1 pM, Table 7, library procedure 42.

Broadly, the Ki is a dissociation constant, usually derived from enzyme kinetics or from competition with a known ligand. One may read the inhibition as the drop in the measured response relative to a control, in per cent.

Like-named read-outs stand apart in the source and are kept apart here.

T1 sequence (P08581 974-1390 limits assumed): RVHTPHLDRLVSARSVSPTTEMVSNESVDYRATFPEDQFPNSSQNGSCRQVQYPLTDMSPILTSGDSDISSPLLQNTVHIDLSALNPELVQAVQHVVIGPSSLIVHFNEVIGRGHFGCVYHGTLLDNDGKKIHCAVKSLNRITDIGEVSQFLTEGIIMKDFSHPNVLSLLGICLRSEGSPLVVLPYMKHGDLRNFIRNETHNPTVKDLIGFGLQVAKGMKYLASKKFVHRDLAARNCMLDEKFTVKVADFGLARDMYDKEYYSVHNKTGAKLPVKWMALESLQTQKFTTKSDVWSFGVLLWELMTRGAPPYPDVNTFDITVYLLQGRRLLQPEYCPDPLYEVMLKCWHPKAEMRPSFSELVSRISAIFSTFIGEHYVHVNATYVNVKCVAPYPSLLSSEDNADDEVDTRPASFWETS

In the case of `CC(Oc1cc(-c2ccc(OCCN3CCOCC3)nc2)cnc1N)c1c(Cl)ccc(F)c1Cl` (stereo not drawn) [Example I-636, 5-[1-(2,6-Dichloro-3-fluoro-phenyl)-ethoxy]-6′-(2-morpholin-4-yl-ethoxy)-[3,3′]bipyridinyl-6-ylamine], the Ki under setting [1] turned out to be 0.109 µM.
On to `CC(C)OCCNC(=O)c1cnc(N)c(OCc2c(Cl)cccc2Cl)c1` [Example L-256], for which, under setting [2], the inhibition at 1 pM stood at 46%.
Still for that read-out and setting: the same measure for `Nc1ncc(C(=O)NC2COC3(CCN(c4ncccn4)CC3)C2)cc1OCc1c(Cl)cccc1Cl` [Example L-332]: 21%.
Take `CC(Oc1cc(-c2ccc(C(=O)N3CCN(CCN(C)C)CC3)cc2)cnc1N)c1c(Cl)ccc(F)c1Cl` [Example L-90]: the inhibition at 0.05 µM worked out at 85%.
With `CC(CN(C)C)NC(=O)c1ccc(-c2cnc(N)c(OC(C)c3c(Cl)ccc(F)c3Cl)c2)cc1` [Example L-138], the inhibition at 0.05 µM was 83%.
Turning to `Nc1ncc(C(=O)N2CCC(Cc3cnccn3)CC2)cc1OCc1c(Cl)cccc1Cl` [Example L-315], the inhibition at 1 pM under setting [2] came to 72%.
With `CC(Oc1cc(-c2ccc(C(=O)N3CCN(CCCO)CC3)cc2)cnc1N)c1c(Cl)ccc(F)c1Cl` [Example L-49], the inhibition at 0.05 µM was determined as 74%.
Turning to `Nc1ncc(C(=O)N2CCN(Cc3cccc4ccccc34)CC2)cc1OCc1c(Cl)cccc1Cl` [Example L-281], the inhibition at 1 pM under setting [2] worked out at 26%.
As for `Nc1ncc(-c2ccc(C(=O)N3CCC(N4CCCC4)CC3)cc2)cc1OCc1cc(F)ccc1F`, under setting [3], the inhibition at 1 pM came out at 24%.
On to `COC(=O)CN(C)C(=O)c1ccc(-c2cnc(N)c(OC(C)c3c(Cl)ccc(F)c3Cl)c2)cc1` [Example L-145], for which the inhibition at 0.05 µM came to 77%.
In the case of `CC(Oc1cc(-c2ccc(C(=O)NC[C@@H]3CCCO3)cc2)cnc1N)c1c(Cl)ccc(F)c1Cl` (stereo partly drawn) [Example L-96], the inhibition at 0.05 µM is 61%.
Regarding `Cn1nc(-c2ccccc2)c(COc2cc(-c3ccc(C(=O)N4CCC(N5CCCC5)CC4)cc3)cnc2N)c1Cl`, under setting [3], the inhibition at 1 pM worked out at 63%.
Turning to `CC(Oc1cc(-c2ccc(C(=O)N[C@H]3CCN(Cc4ccccc4)C3)cc2)cnc1N)c1c(Cl)ccc(F)c1Cl` (stereo partly drawn) [Example L-14], the inhibition at 0.05 µM is 72%.
Turning to `CC(Oc1cc(C#CC(C)(C)NC(=O)N2CCN(C)CC2)cnc1N)c1c(Cl)ccc(F)c1Cl` (stereo not drawn) [Example I-432, 4-Methyl-piperazine-1-carboxylic acid (3-{6-amino-5-[1-(2,6-dichloro-3-fluoro-phenyl)-ethoxy]-pyridin-3-yl}-1,1-dimethyl-prop-2-ynyl)-amide], the inhibition constant (Ki) (cells prefixed Ki, read-out: Met Ki) stood at 0.61 µM.
Consider `Nc1ncc(-c2ccc(C(=O)N3CCC(N4CCCC4)CC3)cc2)cc1OCc1nccn1Cc1ccccc1`, for which, under setting [3], the inhibition at 1 pM came out at 8%.
In the case of `CS(=O)(=O)C1CCN(C(=O)c2cnc(N)c(OCc3c(Cl)cccc3Cl)c2)C1` [Example L-296], the inhibition at 1 pM under setting [2] stood at 23%.
On the same count and under the same terms, the same measure for `Nc1ncc(C(=O)N2CCN(CC(=O)N3CCOCC3)CC2)cc1OCc1c(Cl)cccc1Cl` [Example L-211]: 31%.
Take `CC(Oc1cc(-c2ccc(C(=O)N3CCCCC3CN3CCCCC3)cc2)cnc1N)c1c(Cl)ccc(F)c1Cl` [Example L-73]: the inhibition at 0.05 µM amounted to 90%.
For the molecule `CS(=O)(=O)c1ccc(COc2cc(-c3ccc(C(=O)N4CCC(N5CCCC5)CC4)cc3)cnc2N)cc1`, the inhibition at 1 pM under setting [3] came to 11%.
Turning to `Nc1ncc(C(=O)NC(CO)Cc2ccc(Cl)cc2)cc1OCc1c(Cl)cccc1Cl` [Example L-182], the inhibition at 1 pM under setting [2] worked out at 27%.
For the molecule `Nc1ncc(C(=O)N2CCC3(CC2)COC(CCc2cc(O)n[nH]2)C3)cc1OCc1c(Cl)cccc1Cl` [Example L-350], under setting [2], the inhibition at 1 pM was determined as 34%.
As to `CCCOCCNC(=O)c1cnc(N)c(OCc2c(Cl)cccc2Cl)c1` [Example L-255], the inhibition at 1 pM under setting [2] was 45%.
On to `CC(Oc1cc(-c2ccc(C(=O)NCCN(C)C)cc2)cnc1N)c1c(Cl)ccc(F)c1Cl` [Example L-64], for which the inhibition at 0.05 µM was 85%.
For the molecule `Cc1ccc(COc2cc(-c3ccc(C(=O)N4CC(C)NC(C)C4)cc3)cnc2N)cc1Cl` (stereo not drawn), the inhibition at 1 µM amounted to 27%.
On the same count and under the same terms, the figure for `Cc1ccc(F)c(COc2cc(-c3ccc(C(=O)N4CC(C)NC(C)C4)cc3)cnc2N)c1F` (stereo not drawn) is 35%.
Turning to `CCC(=O)C(c1ccccc1)C1CCN(C(=O)c2cnc(N)c(OCc3c(Cl)cccc3Cl)c2)CC1` [Example L-192], the inhibition at 1 pM turned out to be 44%.
Regarding `Nc1ncc(C(=O)N2CCC(O)CC2)cc1OCc1c(Cl)cccc1Cl` [Example L-194], the inhibition at 1 pM under setting [2] was found to be 35%.
On to `COc1c(C)cnc(COc2cc(-c3ccc(C(=O)N4CCC(N5CCCC5)CC4)cc3)cnc2N)c1C`, for which the inhibition at 1 pM under setting [3] is 20%.
With `CC(Oc1cc(-c2ccc(C(=O)NCC(C)(C)CO)cc2)cnc1N)c1c(Cl)ccc(F)c1Cl` [Example L-50], the inhibition at 0.05 µM turned out to be 73%.
For `Cn1c(COc2cc(-c3ccc(C(=O)N4CCC(N5CCCC5)CC4)cc3)cnc2N)nc2ccccc21`, under setting [3], the inhibition at 1 pM was 10%.
On to `CN(C)CCNC(=O)c1ccc(COc2cc(-c3ccc(C(=O)N4CCC(N5CCCC5)CC4)cc3)cnc2N)cc1`, for which, under setting [3], the inhibition at 1 pM is 9%.
As for `Nc1ncc(-c2ccc(C(=O)N3CCC(N4CCCC4)CC3)cc2)cc1OCc1nc2ccccc2s1`, the inhibition at 1 pM under setting [3] came to 17%.
As for `Nc1ncc(-c2ccc(C(=O)N3CCC(N4CCCC4)CC3)cc2)cc1OCc1c(F)ccc(F)c1Cl`, the inhibition at 1 pM under setting [3] stood at 50%.
As to `CC(Oc1cc(-c2cncc(Br)c2)cnc1N)c1c(Cl)ccc(F)c1Cl` (stereo not drawn) [Example I-644, 5′-Bromo-5-[1-(2,6-dichloro-3-fluoro-phenyl)-ethoxy]-[3,3′]bipyridinyl-6-ylamine], the Ki under setting [1] was found to be 0.196 µM.
In the case of `CC(Oc1cc(-c2ccc(C(=O)N3CCN(CC4CCN(C)CC4)CC3)cc2)cnc1N)c1c(Cl)ccc(F)c1Cl` [Example L-165], the inhibition at 0.05 µM is 88%.
For `CCCN(CCO)C1CCCN(C(=O)c2cnc(N)c(OCc3c(Cl)cccc3Cl)c2)CC1` [Example L-334], the inhibition at 1 pM under setting [2] was determined as 17%.
Take `Nc1ncc(-c2ccc(C(=O)N3CCC(N4CCCC4)CC3)cc2)cc1OCc1ccc(C(=O)NCCN2CCOCC2)cc1`: the inhibition at 1 pM under setting [3] was found to be 11%.
Take `Cc1ccc(COc2cc(-c3ccc(C(=O)N4CC(C)NC(C)C4)cc3)cnc2N)c(F)c1F` (stereo not drawn): the inhibition at 1 µM was 37%.
As for `Nc1ncc(C(=O)NCCC2CCC(=O)N2CCc2ccc(O)cc2)cc1OCc1c(Cl)cccc1Cl` [Example L-314], the inhibition at 1 pM under setting [2] was determined as 16%.
As to `Nc1ncc(C(=O)NCc2noc(C(=O)N3CCC(CO)CC3)n2)cc1OCc1c(Cl)cccc1Cl` [Example L-323], under setting [2], the inhibition at 1 pM came to 26%.
With `CC(Oc1cc(-c2ccc(C(=O)N(C)CCc3ccccn3)cc2)cnc1N)c1c(Cl)ccc(F)c1Cl` [Example L-37], the inhibition at 0.05 µM was found to be 75%.
For `Nc1ncc(C(=O)N2CCCC(F)(F)C2)cc1OCc1c(Cl)cccc1Cl` [Example L-309], the inhibition at 1 pM under setting [2] worked out at 16%.
On to `Nc1ncc(-c2ccc(C(=O)N3CCC(N4CCCC4)CC3)cc2)cc1OCc1ccc(C(F)(F)F)cc1`, for which the inhibition at 1 pM under setting [3] came out at 10%.
Still for that read-out and setting: the same measure for `Cc1cnccc1COc1cc(-c2ccc(C(=O)N3CCC(N4CCCC4)CC3)cc2)cnc1N`: 11%.
For the molecule `Nc1ncc(C(=O)NC[C@]2(O)CC[C@H](c3ccccc3)CC2)cc1OCc1c(Cl)cccc1Cl` [Example L-272], the inhibition at 1 pM under setting [2] came out at 15%.
Take `CC1CN(C(=O)c2ccc(-c3cnc(N)c(OCc4cc(C(F)(F)F)ccc4Cl)c3)cc2)CC(C)N1` (stereo not drawn): the inhibition at 1 µM was 25%.
Take `CC(Oc1cc(-c2ccc(C(=O)N3CCC(CCO)CC3)cc2)cnc1N)c1c(Cl)ccc(F)c1Cl` [Example L-142]: the inhibition at 0.05 µM worked out at 72%.
Turning to `CC(CO)NC(=O)c1ccc(-c2cnc(N)c(OC(C)c3c(Cl)ccc(F)c3Cl)c2)cc1` [Example L-7], the inhibition at 0.05 µM stood at 66%.
`Nc1ncc(-c2ccc(C(=O)N3CCC(N4CCCC4)CC3)cc2)cc1OCc1ccccc1CS(=O)(=O)c1ccccc1`: the inhibition at 1 pM under setting [3] came out at 11%.
Consider `Cc1cc(C)n2nc(COc3cc(-c4ccc(C(=O)N5CCC(N6CCCC6)CC5)cc4)cnc3N)nc2n1`, for which, under setting [3], the inhibition at 1 pM stood at 18%.
`CC1CN(C(=O)c2ccc(-c3cnc(N)c(OCc4ccc(S(=O)(=O)Nc5ccc(F)cc5)cc4)c3)cc2)CC(C)N1` (stereo not drawn): the inhibition at 1 µM came out at 14%.
As to `Cc1noc([C@H]2CC[C@H](CNC(=O)c3cnc(N)c(OCc4c(Cl)cccc4Cl)c3)CC2)n1` [Example L-326], the inhibition at 1 pM under setting [2] was determined as 3%.
Consider `Nc1ncc(-c2ccc(C(=O)N3CCC(N4CCCC4)CC3)cc2)cc1OCc1cc(C(F)(F)F)ccc1Cl`, for which the inhibition at 1 pM under setting [3] was 26%.
Turning to `CCOC(=O)C1CCN(C(=O)c2ccc(-c3cnc(N)c(OC(C)c4c(Cl)ccc(F)c4Cl)c3)cc2)CC1` [Example L-86], the inhibition at 0.05 µM was found to be 57%.
Regarding `Nc1ncc(-c2ccc(C(=O)N3CCC(N4CCCC4)CC3)cc2)cc1OCc1cccnc1`, under setting [3], the inhibition at 1 pM worked out at 17%.
On to `CC1CN(C(=O)c2ccc(-c3cnc(N)c(OCc4nc(CS(=O)(=O)c5ccccn5)no4)c3)cc2)CC(C)N1` (stereo not drawn), for which the inhibition at 1 µM was 16%.
Take `CN(C)C(=O)CN1CCN(C(=O)c2cnc(N)c(OCc3c(Cl)cccc3Cl)c2)CC1` [Example L-262]: the inhibition at 1 pM under setting [2] was found to be 42%.
For `Nc1ncc(-c2ccc(C(=O)N3CCC(N4CCCC4)CC3)cc2)cc1OCc1cccc2cccnc12`, the inhibition at 1 pM under setting [3] was 22%.
As to `CC1CN(C(=O)c2ccc(-c3cnc(N)c(OCc4cc(F)c(F)cc4F)c3)cc2)CC(C)N1` (stereo not drawn), the inhibition at 1 µM came to 20%.
`Cc1ccc(COc2cc(-c3ccc(C(=O)N4CCC(N5CCCC5)CC4)cc3)cnc2N)cc1Cl`: the inhibition at 1 pM under setting [3] is 26%.
On to `CC(Oc1cc(-c2ccc(C(=O)N3CCC(Cc4ccccc4)CC3)cc2)cnc1N)c1c(Cl)ccc(F)c1Cl` [Example L-40], for which the inhibition at 0.05 µM was found to be 55%.
As to `Nc1ncc(-c2ccc(C(=O)N3CCC(N4CCCC4)CC3)cc2)cc1OCc1cn2ccccc2n1`, the inhibition at 1 pM under setting [3] was 11%.
Regarding `CC(=O)NCCNC(=O)c1ccc(-c2cnc(N)c(OC(C)c3c(Cl)ccc(F)c3Cl)c2)cc1` [Example L-24], the inhibition at 0.05 µM came out at 71%.

(Values after patent US20050009840A1 (SUGEN, INC., priority 2003, published 2005).)
